Test results published in patent EP0209707A2, “2-Aryl imidazoles, pharmaceutical compositions containing them and process for their preparation” (Dr. Karl Thomae GmbH, priority 1985, dated 1987).

Key:
narkotisierten Katze = test: Blood pressure effect and positive inotropic effect in the anaesthetised cat; assay type: in vivo; conditions: arterial pressure in Aorta abdominalis
Experimental: 1. Bestimmung der Blutdruckwirkung und der positiv inotropen Wirkung an der narkotisierten Katze
Die Untersuchungen wurden an Katzen durchgeführte die mit Pentobarbital-Natrium (40 mg/kg i.p.) narkotisiert waren. Die Tiere atmeten spontan. Der arterielle Blutdruck wurde in der Aorta abdominalis mit einem Statham-Druckwandler (P 23 Dc) gemessen. Für die Erfassung der positiv inotropen Wirkung wurde mit einem Kathetertipmanometer (Millar PC-350 A) der Druck in der linken Herzkammer gemessen. Daraus wurde der Kontraktilitätsparameter dp/dtmax mittels eines Analogdifferenzierers gewonnen. Die zu untersuchenden Substanzen wurden in eine Vena femoralis injiziert. Als Lösungsmittel diente Polydiol 200. Jede Substanz wurde an mindestens 2 Katzen geprüft.
Die nachfolgende Tabelle enthält die gefundenen Mittelwerte: […]

[1] = test system: Thrombozytenaggregation in plättchenreichem Plasma gesunder Versuchspersonen; test: Collagen-induced platelet aggregation (Born and Cross) in platelet-rich plasma; assay type: cell-based; conditions: 10 min, 50% change of optical density, plasma incubated 10 min with substance at 37°C
Excerpt: Die Thrombozytenaggregation wird nach der Methode von BORN und CROSS (J. Physiol. 170, 397 (1964)) in plättchenreichem Plasma gesunder Versuchspersonen gemessen. Zur Gerinnungshemmung wird das Blut mit Natriumcitrat 3,14 % im Volumenverhältnis 1:10 versetzt.
Der Verlauf der Abnahme der optischen Dichte der Plättchensuspension wird nach Zugabe der aggregationsauslösenden Substanz photometrisch gemessen und registriert. Aus dem Neigungswinkel der Dichtekurve wird auf die Aggregationsgeschwindigkeit geschlossen. Der Punkt der Kurve, bei dem die größte Lichtdurchlässigkeit vorliegt, dient zur Berechnung der "optical density".
Die Collagen-Menge wird möglichst gering gewählt, aber doch so, daß sich eine irreversibel verlaufende Reaktionskurve ergibt. Verwendet wird das handelsübliche Collagen der Firma Hormonchemie, München.
Vor der Collagen-Zugabe wird das Plasma jeweils 10 Minuten mit der Substanz bei 37°C inkubiert.
Aus den erhaltenen Meßzahlen wird graphisch eine EC50 berechnet, die sich auf eine 50%ige Änderung der "optical density" im Sinne einer Aggregationshemmung bezieht.

[2] = second value of the printed pair (presumably diastolic), 1 mg/kg i.v.

Row | Structure (SMILES) | EC50 [1] [µM] | Blutdruck senkung in mm Hg (narkotisierten Katze; [2]) [mm Hg] | Blutdruck senkung in mm Hg (narkotisierten Katze; second value of the printed pair (presumably diastolic), 0,6 mg/kg i.v.) [mm Hg] | Blutdruck senkung in mm Hg (narkotisierten Katze; second value of the printed pair (presumably diastolic), 2 mg/kg i.v.) [mm Hg]
1 | COc1cc(S(C)(=O)=NC(C)=O)ccc1-c1nc2cc(C#N)ccc2[nH]1 (centres unmarked) [A, 2-[2'-Methoxy-4'-(N-acetyl-methylsulfoximino-phenyl)]-5-cyano-benzimidazol] | 5.3 | -20 |  | 
2 | COc1cc(NS(C)(=O)=O)ccc1-c1nc2ccc(C#N)cc2[nH]1 [D, 5-Cyano-2-(4'-methansulfonylamino-2'-methoxy-phenyl)-benzimidazol] |  |  | -27 | 
3 | COC(=O)Nc1ccc(-c2nc3cnccc3[nH]2)c(OC)c1 [E, 2-(2'-Methoxy-4'-methoxycarbonylamino-phenyl)-imidazo-[4,5-c]pyridin] |  |  |  | -12

More lines, main results first:

Row | EC50 [1] [µM] | Structure (SMILES) | Blutdruck senkung in mm Hg (narkotisierten Katze; [2]) [mm Hg] | Blutdruck senkung in mm Hg (narkotisierten Katze; second value of the printed pair (presumably diastolic), 0,6 mg/kg i.v.) [mm Hg] | Blutdruck senkung in mm Hg (narkotisierten Katze; second value of the printed pair (presumably diastolic), 2 mg/kg i.v.) [mm Hg]
4 | 8.2 | COc1cc([S+](C)[O-])ccc1-c1nc2ccc(C(C)=O)cc2[nH]1 (centres unmarked) [B, 2-(2'-Methoxy-4'-methylsulfinyl-phenyl)-5-acetyl-benzimidazol] | -28 |  | 
5 | 8 | COc1cc(S(C)(=O)=O)ccc1-c1nc2ccc(C(C)=O)cc2[nH]1 [C, 2-(2'-Methoxy-4'-methylsulfonyl-phenyl)-5-acetyl-benzimidazol] | -24 |  | 
